Here are results for 3 molecules from patent publication US20210379070A1, “MALONATE SALT OF VARLITINIB” (Aslan Pharmaceuticals PTE LTD, priority 2018, published 2021).

Holding throughout (assay type): physicochemical
The nature of data set [1]: Thermodynamic solubility (slurry in media of pH 1, 4.5 and 6.8, ca. 48 hours, HPLC; solids by XRPD). The note with it: for Solid form by XRPD after thermodynamic solubility slurry: pH 1, 4.5, 6.8 media. On the procedure: Slurries of each potential salt were created in media of pH 1; 4.5 and 6.8 and shaken for ca. 48 hours. The resulting solution was then analysed by HPLC and the concentration of material dissolved calculated. Remaining solids were analysed by XRPD to determine if any changes had occurred on slurrying.

Data set [2] is described as follows: Aqueous solubility (slurry in deionised water, 4 and 24 hours, room temperature, HPLC; solids by XRPD). The note with it: for Solid form by XRPD after aqueous solubility slurry: 4 and 24 hours; for Aqueous solubility: room temperature. On the procedure:
Slurries of each potential salt were created in deionised water and agitated for 4 and 24 hours at room temperature. After both 4 and 24 hours, the resulting solutions were analysed by HPLC and the concentration of material dissolved calculated. Remaining solids were analysed by XRPD to determine if any changes had occurred on slurrying.

Data set [3] is described as follows: Stability (storage) testing, 1 week, XRPD. The settings on record: for Storage testing (solid form by XRPD): ambient light, 40° C./75% RH and 80° C., 1 week. On the procedure:
Each potential salt was exposed to environments of 40° C./75% RH, elevated temperature (80° C.) and ambient light (ca. 22° C. in a closed vial), for 1 week to determine stability. Resulting solids were analysed by XRPD to establish if any changes had occurred.

Data set [4] can be described thus: Salt disproportionation studies (slurry in water, XRPD at 1, 24 & 48 hours). The note with it: room temperature, 1, 24 & 48 hours. On the procedure: Salt Disproportionation Studies
Each potential salt was slurried in water at room temperature (ca. 22° C.), with the excess solid taken at 1, 24 & 48 hours and analysed by XRPD. The pH of the supernatant was also monitored.

A short description of data set [5]: Hydration studies (slurry in acetone:water 3, 5 and 10% water, ca. 48 hours, XRPD). On the procedure: Slurries of each potential salt were created in acetone:water mixtures (3, 5 and 10% water) and shaken for ca. 48 hours. The resulting solid was then analysed by XRPD to determine if any changes had occurred on slurrying.
Data set [6] can be described thus: Dynamic Vapour Sorption (DVS). The note with it: for Solid form by XRPD post DVS: after exposure to varying % RH; for DVS water uptake: between 20-70% RH. On the procedure: Dynamic Vapour Sorption (DVS)
Approximately 10 mg of sample was placed into a mesh vapour sorption balance pan and loaded into a DVS-1 dynamic vapour sorption balance by Surface Measurement Systems. The sample was subjected to a ramping profile from 20-90% relative humidity (RH) at 10% increments maintaining the sample at each step until a stable weight had been achieved (99.5% step completion). After completion of the sorption cycle, the sample was dried using the same procedure, but all the way down to 0% RH and finally taken back to the starting point of 20% RH. The weight change during the sorption/desorption cycles were plotted, allowing for the hygroscopic nature of the sample to be determined.

Data set [7] in a line: Thermal analysis (TG/DTA, DSC): onset of degradation. The note with it: TG/DTA (TGA). On the procedure: Thermogravimetric Analysis (TGA)
Approximately, 5 mg of material was accurately weighed into an open aluminium pan and loaded into a simultaneous thermogravimetric/differential thermal analyser (TG/DTA) and held at room temperature. The sample was then heated at a rate of 10° C./min from 25° C. to […] the change in sample weight was recorded along with any differential thermal events (DTA). Nitrogen was used as the purge gas, at a flow rate of 100 cm^3/min.
Differential Scanning calorimetry (DSC)
Approximately, 5 mg of material was weighed into an aluminium DSC pan and sealed non-hermetically with a pierced aluminium lid. The sample pan was then loaded into a Seiko DSC6200 (equipped with a cooler). The sample and reference were heated to ca. 220° C. at a scan rate of 10° C./min and the resulting heat flow response monitored.

Molecules are shown by their SMILES. “Also recorded” adds a separate entry of the source. Where only a bound is given, the exact number is not on record here.

As to `C[C@@H]1COC(Nc2ccc3ncnc(Nc4ccc(OCc5nccs5)c(Cl)c4)c3c2)=N1.O=C(O)/C=C\C(=O)O` [maleate salt], in data set [1], the “Solid form by XRPD after thermodynamic solubility slurry” value was “A change in solid form was observed by XRPD from pH1 and pH4.5”. In addition, the Thermodynamic solubility in data set [1] (pH1, ca. 48 hours) was 1213.8 µg/mL; in data set [1] (pH 4.5, ca. 48 hours), 3.6 µg/mL; in data set [1] (pH 6.8, ca. 48 hours) it was less than 0.445 µg/mL. Besides, the “Solid form by XRPD after aqueous solubility slurry” value in data set [2] is “remained unchanged after slurrying, with a potential increase in amorphous content”. Moreover, the values for the Aqueous solubility in data set [2] (4 hours) and in data set [2] (24 hours) were 257 µg/mL and 408.9 µg/mL, respectively. Further, the “Storage testing (solid form by XRPD)” value in data set [3] is reported as “remain unchanged”. For the same molecule, the “Salt disproportionation on slurrying in water” value in data set [4] is “no change in form of the maleate salt on slurrying in water at 1 hr and 24 hrs. After 48 hrs the material was observed to be predominantly amorphous”. Besides, the “Hydration study (solid form after slurrying)” value in data set [5] is on record as “remained unchanged after slurrying, indicating a low hydration risk”. Also, the “Solid form by XRPD post DVS” value in data set [6] is “remain unchanged”. This molecule registered a DVS water uptake in data set [6] of 1.95%. The “DVS water uptake overall” value in data set [6] is listed as 2.84%. The Onset of degradation result in data set [7] was “ca. 150 °C”.
In the case of `C[C@@H]1COC(Nc2ccc3ncnc(Nc4ccc(OCc5nccs5)c(Cl)c4)c3c2)=N1` [varlitinib, (R)—N4-[3-Chloro-4-(thiazol-2-ylmethoxy)-phenyl]-N6-(4-methyl-4,5,-dihydro-oxazol-2-yl)-quinazoline-4,6-diamine], the Onset of degradation result in data set [7] is “ca. 230 °C”.
For the molecule `C[C@@H]1COC(Nc2ccc3ncnc(Nc4ccc(OCc5nccs5)c(Cl)c4)c3c2)=N1.O=C(O)CC(=O)O` [malonate salt], the “Solid form by XRPD after thermodynamic solubility slurry” value in data set [1] is “A change in solid form was observed by XRPD from pH1 and pH4.5”. In addition, the Thermodynamic solubility in data set [1] (pH1, ca. 48 hours) stood at 768.7 µg/mL; in data set [1] (pH 4.5, ca. 48 hours), 2.8 µg/mL; in data set [1] (pH 6.8, ca. 48 hours) it was 2 µg/mL. Besides, the “Solid form by XRPD after aqueous solubility slurry” value in data set [2] is reported as “remain unchanged after slurrying”. Moreover, the values for the Aqueous solubility in data set [2] (4 hours) and in data set [2] (24 hours) were 494.7 µg/mL and 603.6 µg/mL, respectively. In addition, the “Storage testing (solid form by XRPD)” value in data set [3] is “remained unchanged”. In addition, the “Overall stability in the secondary screen tests” value in data set [3] (conclusion over all tests employed) is “good stability throughout the tests employed”. In addition, the “Salt disproportionation on slurrying in water” value in data set [4] was “no form change of the malonate salt on slurrying in water; also recorded: No disproportionation or hydration observed”. In addition, the “Hydration study (solid form after slurrying)” value in data set [5] is recorded as “remain unchanged after slurrying, indicating a low hydration risk; also recorded: No disproportionation or hydration observed”. Also, the Hygroscopicity result in data set [6] (DVS) is reported as “non-hygroscopic”. Further, in data set [6], the “Solid form by XRPD post DVS” value was “No change to the solid form; also recorded: no change in PXRD post DVS”. In data set [6], this molecule gave a DVS water uptake of 0.14%. In data set [6], the “DVS water uptake overall” value was found to be 0.35%.
